Assay results published in patent US10407467B2, “Polymyxin derivatives and their use in combination therapy together with different antibiotics” (priority 2013, dated 2019).
Counter-ions that a name gives are not always drawn. Bridge positions count the residues as written; N and C are the ends. Square brackets hold non-standard residues; d marks the D form. Peptide text beside a SMILES is read from it. * marks the point of attachment. ξ: configuration not given here. ξβ3hGly(cHex) = NC(CC(=O)*)C1CCCCC1; Thr(3ξ) = CC(O)[C@H](N)C(=O)O; Dab = NCC[C@H](N)C(=O)O; Dap = NC[C@H](N)C(=O)O; Inp = O=C(O)C1CCNCC1; X4 = NC1CCCC1C(=O)*; Ahx = NCCCCCC(=O)O

Columns and labels:
Format in all cases: cell-based
[1] = test system: Escherichia coli; assay: MIC, sole activity (no second agent); conditions: in the absence of Rifampicin; for MIC E. coli NCTC9001: strain NCTC9001; for MIC E. coli ATCC25922: strain ATCC25922
In short: (§1)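 Inoculum: direct colony suspension (18-24 h MH agar), 0.5 McFarland. Medium: cation-adjusted MHB. Up to 4 strains/species; reported relative to Polymyxin B.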

[2] = test system: Acinetobacter baumannii; assay: MIC, sole activity (no second agent); conditions: in the absence of Rifampicin; for MIC A. baumannii ATCCBAA-747: strain ATCCBAA-747; for MIC A. baumannii NCTC 13423: strain NCTC13423; for MIC A. baumannii ATCC13424: strain ATCC13424; for MIC A. baumannii CCUG57249: strain CCUG 57249
In short: as §1

[3] = test system: Klebsiella pneumoniae; assay: MIC, sole activity (no second agent); conditions: in the absence of Rifampicin; for MIC K. pneumoniae ATCC 4352: strain ATCC 4352; for MIC K. pneumoniae ATCC-BAA2146: strain ATCC-BAA2146; for MIC K. pneumoniae CCUG-59348: strain CCUG-59348
In short: as §1

[4] = test system: Pseudomonas aeruginosa; assay: MIC, sole activity (no second agent); conditions: in the absence of Rifampicin; for MIC P. aeruginosa ATCC 27853: strain ATCC27853; for MIC P. aeruginosa ATCC-47: strain ATCC-47; for MIC P. aeruginosa ATCCCRM-9027: strain ATCCCRM-9027; for MIC P. aeruginosa CCUG 59626: strain CCUG 59626
In short: as §1

[5] = test system: Escherichia coli; assay: MIC, compound in combination with a second agent (broth microdilution); conditions: 1:1 (wt:wt) combination with Rifampicin, MIC = total drug concentration; for MIC E. coli ATCC25922: strain ATCC25922; for MIC E. coli NCTC9001: strain NCTC9001
In short: (§2)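 Compound and second agent (e.g. rifampicin) were combined 1:1 w/w, compound weighed as its TFA or sulphate salt. Inoculum was a direct colony suspension from 18-24 hour Mueller-Hinton agar at 0.5 McFarland. MIC is the total drug concentration; lower of duplicates reported, modal value when tested repeatedly.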

[6] = test system: Acinetobacter baumannii; assay: as above; conditions: 1:1 (wt:wt) combination with Rifampicin, MIC = total drug concentration; for MIC A. baumannii ATCC BAA-747: strain ATCC BAA-747; for MIC A. baumannii CCUG57249: strain CCUG57249; for MIC A. baumannii NCTC 13423: strain NCTC 13423; for MIC A. baumannii NCTC 13424: strain NCTC 13424
In short: as §2

[7] = test system: Klebsiella pneumoniae; assay: as above; conditions: 1:1 (wt:wt) combination with Rifampicin, MIC = total drug concentration; for MIC K. pneumoniae ATCC 4352: strain ATCC 4352; for MIC K. pneumoniae ATCC-BAA-2146: strain ATCC-BAA-2146; for MIC K. pneumoniae CCUG-59348: strain CCUG-59348
In short: as §2

[8] = test system: Pseudomonas aeruginosa; assay: as above; conditions: 1:1 (wt:wt) combination with Rifampicin, MIC = total drug concentration; for MIC P. aeruginosa ATCC 27853: strain ATCC 27853; for MIC P. aeruginosa ATCC CRM-9027: strain ATCC CRM-9027; for MIC P. aeruginosa ATCC-47: strain ATCC-47; for MIC P. aeruginosa CCUG 59626: strain CCUG 59626
In short: as §2

| Compound | MIC E. coli NCTC9001 [1] | MIC A. baumannii ATCCBAA-747 [2] | MIC A. baumannii NCTC 13423 [2] | MIC K. pneumoniae ATCC 4352 [3] | MIC K. pneumoniae ATCC-BAA2146 [3] | MIC K. pneumoniae CCUG-59348 [3] | MIC P. aeruginosa ATCC 27853 [4] | MIC P. aeruginosa ATCC-47 [4] | MIC P. aeruginosa ATCCCRM-9027 [4] | MIC P. aeruginosa CCUG 59626 [4] | MIC E. coli ATCC25922 [5] | MIC E. coli NCTC9001 [5] | MIC A. baumannii ATCC BAA-747 [6] | MIC A. baumannii CCUG57249 [6] | MIC A. baumannii NCTC 13423 [6] | MIC K. pneumoniae ATCC-BAA-2146 [7] | MIC K. pneumoniae CCUG-59348 [7] | MIC P. aeruginosa ATCC CRM-9027 [8] | MIC P. aeruginosa ATCC-47 [8] | MIC P. aeruginosa CCUG 59626 [8] | also measured |
| --- | --- | --- | --- | --- | --- | --- | --- | --- | --- | --- | --- | --- | --- | --- | --- | --- | --- | --- | --- | --- | --- |
| CC(C)C[C@@H]1NC(=O)[C@@H](Cc2ccccc2)NC(=O)[C@H](CCN)NC(=O)[C@@H](NC(=O)[C@@H](CO)NC(=O)[C@@H](NC(=O)CC(N)C2CCCCC2)[C@@H](C)O)CCNC(=O)[C@H](C(C)O)NC(=O)[C@H](CCN)NC(=O)[C@H](CCN)NC1=O (stereo partly drawn) [Example 48, [3-Amino-3-cyclohexyl-propionyl]-L-Thr-D-Ser-polymyxin B heptapeptide, TFA salt] ({ξβ3hGly(cHex)}-T[dS][Dab][Dab][dF]L[Dab][Dab][Thr(3ξ)]; lactam 3-C) | >32 micrograms/mL | 0.25 micrograms/mL | 0.25 micrograms/mL | 0.5 micrograms/mL | 4 micrograms/mL | >32 micrograms/mL | 4 micrograms/mL | 8 micrograms/mL | 0.5 micrograms/mL | 1 micrograms/mL | 0.25 micrograms/mL | 0.5 micrograms/mL | 0.125 micrograms/mL | ≤0.06 micrograms/mL | 0.125 micrograms/mL | 2 micrograms/mL | 2 micrograms/mL | 1 micrograms/mL | 2 micrograms/mL | 1 micrograms/mL | MIC A. baumannii NCTC 13424 [6]: ≤0.06 micrograms/mL; MIC K. pneumoniae ATCC 4352 [7]: 0.25 micrograms/mL; MIC P. aeruginosa ATCC 27853 [8]: 1 micrograms/mL |
| CC(C)C[C@@H]1NC(=O)[C@@H](Cc2ccccc2)NC(=O)[C@H](CCN)NC(=O)[C@@H](NC(=O)[C@H](CCCCN)NC(=O)[C@@H](NC(=O)C2CCNCC2)C(C)O)CCNC(=O)[C@H](C(C)O)NC(=O)[C@H](CCN)NC(=O)[C@H](CCN)NC1=O (stereo partly drawn) [Example 51, Piperidin-4-yl carbonyl-L-Thr-L-Lys-polymyxin B heptapeptide, TFA salt] (H-[Inp][Thr(3ξ)]K[Dab][Dab][dF]L[Dab][Dab][Thr(3ξ)]; lactam 4-C) | >32 micrograms/mL | 4 micrograms/mL | 8 micrograms/mL | 2 micrograms/mL | >32 micrograms/mL | >32 micrograms/mL |  | 32 micrograms/mL | 0.125 micrograms/mL | 0.25 micrograms/mL | 0.125 micrograms/mL | 0.5 micrograms/mL | ≤0.06 micrograms/mL | ≤0.06 micrograms/mL | 0.125 micrograms/mL | 1 micrograms/mL | 4 micrograms/mL | 0.25 micrograms/mL | 0.5 micrograms/mL | 0.5 micrograms/mL | MIC E. coli ATCC25922 [1]: >32 micrograms/mL; MIC A. baumannii ATCC13424 [2]: 4 micrograms/mL; MIC A. baumannii CCUG57249 [2]: 4 micrograms/mL; MIC K. pneumoniae ATCC 4352 [7]: 0.125 micrograms/mL; MIC P. aeruginosa ATCC 27853 [8]: 0.25 micrograms/mL |
| CC(C)C[C@@H]1NC(=O)[C@@H](Cc2ccccc2)NC(=O)[C@H](CCN)NC(=O)[C@@H](NC(=O)[C@H](CCN)NC(=O)[C@@H](NC(=O)CCCCCN)C(C)O)CCNC(=O)[C@H](C(C)O)NC(=O)[C@H](CCN)NC(=O)[C@H](CCN)NC1=O (some centres unmarked) [Example 2, 6-Aminohexanoyl polymyxin B nonapeptide] (H-[Ahx][Thr(3ξ)][Dab][Dab][Dab][dF]L[Dab][Dab][Thr(3ξ)]; lactam 4-C) | 8 micrograms/mL | 8 micrograms/mL | 0.5 micrograms/mL | 0.5 micrograms/mL |  |  | 0.5 micrograms/mL |  | 0.25 micrograms/mL |  | 0.125 micrograms/mL | 0.5 micrograms/mL | ≤0.06 micrograms/mL | ≤0.06 micrograms/mL | ≤0.06 micrograms/mL | 0.5 micrograms/mL | 4 micrograms/mL | 0.25 micrograms/mL | 0.25 micrograms/mL | 0.125 micrograms/mL | MIC E. coli ATCC25922 [1]: 2 micrograms/mL; MIC A. baumannii NCTC 13424 [6]: ≤0.06 micrograms/mL; MIC K. pneumoniae NCTC 13438 ([7]; strain NCTC 13438): 0.5 micrograms/mL |
| CC(C)C[C@@H]1NC(=O)[C@@H](Cc2ccccc2)NC(=O)[C@H](CCN)NC(=O)[C@@H](NC(=O)[C@H](CN)NC(=O)[C@@H](NC(=O)C2CCCC2N)C(C)O)CCNC(=O)[C@H](C(C)O)NC(=O)[C@H](CCN)NC(=O)[C@H](CCN)NC1=O (stereo partly drawn) [Example 43, [2-Amino-cyclopentane-carbonyl]-L-Thr-L-Dap-polymyxin B hepatapeptide, TFA salt] (X4-[Thr(3ξ)][Dap][Dab][Dab][dF]L[Dab][Dab][Thr(3ξ)]; lactam 3-C) | 16 micrograms/mL | 0.5 micrograms/mL | 0.125 micrograms/mL | 0.5 micrograms/mL | 4 micrograms/mL | >32 micrograms/mL | 0.125 micrograms/mL | 1 micrograms/mL | 0.125 micrograms/mL | ≤0.06 micrograms/mL | 0.125 micrograms/mL | 0.125 micrograms/mL | 0.125 micrograms/mL | ≤0.06 micrograms/mL | ≤0.06 micrograms/mL | 0.25 micrograms/mL | 2 micrograms/mL | 0.125 micrograms/mL | 0.125 micrograms/mL | 0.125 micrograms/mL | MIC E. coli ATCC25922 [1]: 2 micrograms/mL; MIC A. baumannii ATCC13424 [2]: 0.25 micrograms/mL; MIC A. baumannii CCUG57249 [2]: 0.5 micrograms/mL; MIC A. baumannii NCTC 13424 [6]: 0.125 micrograms/mL; MIC K. pneumoniae ATCC 4352 [7]: 0.125 micrograms/mL; MIC P. aeruginosa ATCC 27853 [8]: 0.125 micrograms/mL |
